According to patent US12358859B2, “Series of compounds for treatment of skin diseases and other conditions” (Unigen, Inc., priority 2018, dated 2025):
pIC50: −log10 of the molar value. Read-outs that look alike come from different tables or passages of the source.

Assays:
Type in all cases: cell-based
[1] = system: murine melanoma cells B16-F1; test: Cell viability, tetrazolium reduction assay
Method: (§1) All test compounds were initially dissolved in 100% DMSO at a concentration of 400 mM. Then, 6 μL of 400 mM test compounds were added to 1.2 mL of the cell growth media giving a final concentration of 2 mM for the test compound and concentration of 0.5% for DMSO. The compounds were centrifuged for 1 h at 20,000×g. Supernatants (1 mL) were collected and filtered through sterile 0.2 μm filters. The compounds were serially diluted in two-fold increments in the sterile cell growth media supplemented with 0.5% DMSO, thus keeping the concentration of DMSO constant for all samples. These serially diluted compounds were subsequently used as two-fold concentrated stock solutions in the melanin production and cell viability assays. Equal volumes of 2× compounds were mixed with media containing 2 nM α-MSH to give a final concentration of 1 nM α-MSH, 0.5% DMSO, and 1× concentration of test compounds.
Viability of cells was measured using standard tetrazolium reduction assay based on redox potential of live cells. Cells were seeded in a clear-bottom 96-well plate in RPMI 1640 media with Glutamax (Fisher Scientific, cat #61870036) at a density of 5,000 cells/well. Cells were treated with test compounds dissolved in 100 μL RPMI 1640 media and incubated for 48 hours at 37° C. in a humidified atmosphere of 95% air and 5% CO2.
After incubation, 20 μL of Aqueous One Solution were added to each well and the plate was returned to the incubator for 30 minutes. Conversion of tetrazolium was monitored by measuring absorbance of cell wells at 492 nm using a TECAN Genios plate reader.
(§2) More than 90% percent of the melanin produced by cultured melanoma cells is found in extra-cellular media. Therefore, at the end of the experiment melanin-containing media was collected and relative amounts of melanin were determined by absorption at 492 nm. Viability of cells was determined by a commonly used colorimetric procedure that is based on conversion of the tetrazolium compounds to colored formazan products (using Promega's CellTiter96 AqueousOne assay). Dehydrogenase enzymes in metabolically active cells accomplish this conversion, and the amount of formazan product is directly proportional to the number of living cells in culture. Mean (n=2) absorption of wells containing no cells was subtracted as blanks. The results were computed as percent of wells that contained the cells but no test compounds.

[2] = system: murine melanoma cells B16-F1; test: Melanin production by murine melanoma cells B16-F1; conditions: Mus musculus, B16-F1, 1 nM α-MSH, 48 hours
Method: Selected compounds were then tested for the ability to suppress melanin production by the murine melanoma cells B16-F1 as detailed below.
Murine melanoma cells B16-F1 were purchased from the ATCC (Cat #CRL-6323). Cell Titer96 AqueousOne Solution was purchased from Promega (Cat #G3582). 0.2 μm pore size, low protein binding filters were purchased from PALL Life Sciences. (Cat #PN4454).
Alpha-MSH was purchased from the Sigma Aldrich (Cat #M4135-1MG). All tissue culture reagents were purchased from VWR (phenol-red-free DMEM, cat #12001-630, L-glutamine, cat #12001-698) and Fisher Scientific (Trypsin-EDTA, cat #25-200-056).
The B16-F1 cells were maintained in cell growth media (DMEM/High Glucose supplemented with glutamine, 10% fetal bovine serum, 50 units/ml penicillin, and 50 units/mL of streptomycin) at 37° C. in a humidified atmosphere of 95% air and 5% CO2.
as §1
B16-F1 cells were seeded into the wells of clear-bottom 24-well plates at 50,000 cells per well, in 0.5 mL of cell growth media. On the following day, 0.5 mL of freshly prepared test compounds containing α-MSH were added to the wells. The cells were maintained at 37° C. in a humidified atmosphere of 95% air and 5% CO2 for 48 hours. At the end of the incubation period, melanin-containing conditioned media was removed from the cells and transferred to another plate. To measure melanin content the light absorbance of conditioned media was taken at 492 nm using a TECAN Genios plate reader.
as §2

[3] = system: Propionibacterium acnes (ATCC11827); test: P-acne MIC/MBC test; conditions: Cutibacterium acnes; for MIC: ATCC11827, 24 h, lowest level that inhibits growth, turbidity, 1 day, read-out: MIC; for MBC: ATCC11827, lowest concentration required to kill the bacterium, read-out: MBC
Method: The anti-microbial activity of the tested compounds were evaluated using published methods (Modugno e. al. (1994) Antimicrobial agents and Chemotherapy 38: 2362-2368; […] et. al. (1973) Antimicrobial agents and Chemotherapy 3: 40-48. Propionibacterium acnes (ATCC11827) was cultured for 20 hours at 37° C. in Reinforced Clostridal medium. The test article and positive control were dissolved in 1% DMSO with an incubation volume of 1 mL. The time of assessment was 1 day. Measurement of turbidity was used as the method of quantification. The compounds were tested in duplicate at concentrations of 250 ug/mL, 125 ug/mL, 62 ug/mL, 31 ug/mL, 16 ug/mL, 8 ug/mL, 4 ug/mL, 2 ug/mL relative to positive control ampicillin at 0.1 ug/mL.

[4] = system: reconstructed skin (keratinocytes and melanocytes); test: Reconstructed human skin model (Melanoderm); conditions: for toxicity on reconstructed skin: at 0.05%
Method: The skin whitening effects of test compounds were studied using a reconstructed skin model, Melanoderm™ provided by MatTek Corp. (Ashland, Mass.) according to the manufacturer's specifications. Briefly, normal human epidermal keratinocytes and normal human melanocytes derived from dark skin donors were co-cultured on a surface of collagen-coated membrane to form multi-layered, highly differentiated skin tissue (MEL-300-B). The tissues were maintained in the CO2, incubator at 37° C. The apical surfaces of the reconstructed skin (9 mm in diameter) were exposed to air whereas the bottom surfaces remained in contact with 5 mL of maintenance medium, containing skin differentiating factors (EPI-100-NNM-113). Test compounds were formulated in 80% propylene glycol as follows: 10 mg of each test compound was dissolved in DMSO and diluted with 80% propylene glycol (1,2-propanediol, Sigma-Aldrich) to stock concentrations. The compounds were then sterilized by passing through 0.2 um filter and diluted in sterile water/propylene glycol to final test concentrations in 0.5% DMSO, 80% propylene glycol. In addition, the following controls were used: 80% propylene glycol with 0.5% DMSO, and 1% kojic acid in 80% propylene glycol.
‘Test compounds were applied to the apical surface of the tissues as follows: 25 μl of each test compound, 25 μl of 80% propylene glycol (vehicle control), and 25 μl of 1% kojic acid (positive control). The samples were reapplied every other day for 14 days. All the samples were tested in duplicate. At the end of the experiment microscopic images were taken.
The potential skin-whitening properties of test compounds were explored in a reconstructed skin model. The model consists of normal, human-derived epidermal keratinocytes and melanocytes, which have been co-cultured to form a multilayered, highly differentiated human epidermis. In this study the melanocytes were obtained from a highly pigmented donor.
Different concentrations of test compounds, 80% propylene glycol (the vehicle control), or 1% kojic acid (positive control) were repeatedly applied topically on the surface of the reconstructed skin for 15 days. […] Photographs of skin specimen taken after 15 days of the experiment show significant dose-dependent whitening effects on melanocytes, which appear on photographs as dark dendritic cells.

[5] = Tables 1-3, read-out: MELANIN PRODUCTION
[6] = FIGS. 2-8, read-out: IC50, inhibition in the production of melanin

Row | pIC50 [2, 5] | MIC [3] | SMILES | CELL VIABILITY ([1]; mouse, 48 h) | MBC [3] | toxicity on reconstructed skin [4] | LD50, cell viability ([1]; mouse, 48 h) | pIC50 [2, 6] | whitening effects on melanocytes ([4]; topical, photographs after 14 days) | CELL VIABILITY ([1]; 48 hours, Tables 1-3)
1 | 3.83 | – | COc1ccc(/C=C/C(C)CCC=C(C)C)cn1 (stereo not drawn) [Compound 14, (E)-5-(3,7-dimethylocta-1,6-dienyl)-2-methoxypyridine] | 369 µM | – | – | – | – | – | –
2 | 3.83 | – | CC(C)=CCCC(C)/C=C/c1ccccn1 (stereo not drawn) [Compound 13, (E)-2-(3,7-dimethylocta-1,6-dienyl) pyridine] | 650 µM | – | – | – | – | – | –

More lines, now with the values behind:

Row | SMILES | pIC50 [2, 5] | MIC [3] | CELL VIABILITY ([1]; mouse, 48 h) | MBC [3] | toxicity on reconstructed skin [4] | LD50, cell viability ([1]; mouse, 48 h) | pIC50 [2, 6] | whitening effects on melanocytes ([4]; topical, photographs after 14 days) | CELL VIABILITY ([1]; 48 hours, Tables 1-3)
3 | CC(C)=CCCC(C)C/C=C/c1cc(OCC(=O)O)cc(OCC(=O)O)c1 (stereo not drawn) [Compound 17, (E)-2,2′-(5-(4,8-dimethylnona-1,7-dienyl)-1,3-phenylene)bis(oxy)diacetic acid] | 4.14 | < 3.9 µg/mL | 127 µM | < 3.9 µg/mL | – | – | – | – | –
4 | CC(C)=CCCC(C)C/C=C/c1cc(O)cc(O)c1 (stereo not drawn) [Compound 16, (E)-5-(4,8-dimethylnona-1,7-dienyl) benzene-1,3-diol] | 3.79 | < 3.9 µg/mL | 172 µM | < 3.9 µg/mL | – | – | – | – | –
5 | CC(C)=CCCC(C)/C=C/c1ccc2cc(O)ccc2c1 (stereo not drawn) [Compound 8, (E)-6-(3,7-Dimethylocta-1,6-dienyl) naphthalene-2-ol] | 4.66 | < 3.9 µg/mL | 68 µM | < 3.9 µg/mL | some toxicity | 68 µM | 4.66 | – | –
6 | CC(C)=CCC/C(C)=C/c1ccc(O)cc1O [Compound 3, (E/Z)-4-(2,6-dimethylhepta-1,5-dienyl)benzene-1,3-diol] | 3.79 | < 3.9 µg/mL | 172 µM | < 3.9 µg/mL | – | – | – | – | –
7 | CC(C)=CCCC(C)/C=C/c1cccnc1 (stereo not drawn) [Compound 12, (E)-3-(3,7-dimethylocta-1,6-dienyl) pyridine] | 4.13 | < 3.9 µg/mL | – | < 3.9 µg/mL | some toxicity | 385 µM | 4.13 | significant whitening effects | 385 µM
8 | CC(C)=CCCC(C)=Cc1cccc(O)c1 (mixture of isomers) [Compound 2, (E/Z)-3-(2,6-dimethylhepta-1,5-dienyl)phenol] | 4.09 | – | 66 µM | – | – | – | – | – | –
